Laboratory results taken from ChEMBL document CHEMBL3864166, “4-Carbonyl-2,6-dibenzylidenecyclohexanone derivatives as small molecule inhibitors of STAT3 signaling pathway” (Bioorg Med Chem, 2016).
The source made the active and inactive calls. The calls are words filed in the database; no cut-off is given here.

Tests used:
[1] = Antiproliferative activity against human A549 cells after 48 hrs by MTT assay; assay type: functional, cell-based; conditions: A549, 48 h
[2] = Antiproliferative activity against human DU145 cells after 48 hrs by MTT assay; assay type: functional, cell-based; conditions: DU-145, 48 h
[3] = Antiproliferative activity against human MDA-MB-231 cells after 48 hrs by MTT assay; assay type: functional, cell-based; conditions: MDA-MB-231, 48 h
[4] = system: DU-145; experiment: Selectivity ratio of IC50 for human DU145 cells to IC50 for human MDA-MB-231 cells; assay type: functional
[5] = system: A549; experiment: Selectivity ratio of IC50 for human DU145 cells to IC50 for human A549 cells; assay type: functional
[6] = Cytotoxicity against human HL-7702 cells assessed as reduction in cell viability after 48 hrs by MTT assay; assay type: toxicity, cell-based; conditions: l02, 48 h
[7] = target: T1, Signal transducer and activator of transcription 3 (Homo sapiens, UniProt P40763); experiment: Inhibition of IL6-stimulated STAT3 phosphorylation at Tyr-705 residue in human MDA-MB-231 cells at 1 to 4 uM preincubated for 2 hrs followed by IL6 stimulation measured after 30 mins by Western blot analysisis; assay type: cell-based
T1 sequence (P40763 whole entry): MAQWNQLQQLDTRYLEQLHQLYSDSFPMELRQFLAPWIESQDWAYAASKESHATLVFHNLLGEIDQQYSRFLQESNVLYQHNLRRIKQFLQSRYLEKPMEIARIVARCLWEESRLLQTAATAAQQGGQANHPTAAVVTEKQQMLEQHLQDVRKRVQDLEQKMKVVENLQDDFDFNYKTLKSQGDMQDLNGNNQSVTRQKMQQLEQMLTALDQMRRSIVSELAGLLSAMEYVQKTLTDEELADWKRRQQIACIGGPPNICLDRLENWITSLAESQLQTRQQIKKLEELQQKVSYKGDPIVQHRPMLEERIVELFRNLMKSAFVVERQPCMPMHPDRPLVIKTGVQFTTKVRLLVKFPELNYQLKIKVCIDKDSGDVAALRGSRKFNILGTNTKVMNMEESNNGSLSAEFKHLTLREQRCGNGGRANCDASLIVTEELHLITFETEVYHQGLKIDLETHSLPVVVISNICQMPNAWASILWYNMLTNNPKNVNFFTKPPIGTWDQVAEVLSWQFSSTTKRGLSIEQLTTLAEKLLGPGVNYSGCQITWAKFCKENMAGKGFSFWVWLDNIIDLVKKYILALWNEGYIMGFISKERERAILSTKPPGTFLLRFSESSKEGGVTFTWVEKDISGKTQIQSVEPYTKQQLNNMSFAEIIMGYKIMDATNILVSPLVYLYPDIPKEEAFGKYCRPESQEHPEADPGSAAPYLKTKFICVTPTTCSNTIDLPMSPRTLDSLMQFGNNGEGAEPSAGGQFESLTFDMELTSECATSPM

[8] = target: T1, Signal transducer and activator of transcription 3; experiment: Inhibition of STAT3 phosphorylation at tyr705 in human A549 cells after 24 hrs by Western blot analysisis; assay type: cell-based
[9] = Effect on total STAT3 protein expression in human MDA-MB-231 cells at 1 to 4 uM after 24 hrs by Western blot analysis; assay type: ADME, cell-based; conditions: mda-mb-231, 24 h
[10] = target: T1, Signal transducer and activator of transcription 3; experiment: Inhibition of STAT3 phosphorylation at tyr705 in human MDA-MB-231 cells after 24 hrs by Western blot analysisis; assay type: cell-based
[11] = system: A549; experiment: Induction of apoptosis in human A549 cells assessed increase in cleaved PARP levels up to 4 uM after 24 hrs by Western blot analysisis; assay type: functional, cell-based
[12] = target: T1, Signal transducer and activator of transcription 3; experiment: Inhibition of STAT3 phosphorylation at tyr705 in human MDA-MB-231 cells at 4 uM after 24 hrs by Western blot analysisis; assay type: cell-based
[13] = system: MDA-MB-231; experiment: Induction of apoptosis in human MDA-MB-231 cells assessed increase in cleaved PARP levels at 1 to 4 uM after 24 hrs by Western blot analysisis; assay type: functional, cell-based
[14] = Downregulation of IL6-stimulated STAT3 expression in human MDA-MB-231 cells at 1 to 4 uM preincubated for 2 hrs followed by IL6 stimulation measured after 30 mins by Western blot analysisis; assay type: functional, cell-based
[15] = target: T1, Signal transducer and activator of transcription 3; experiment: Binding affinity to STAT3 (unknown origin) expressed in Escherichia coli expression system by SPR assay
[16] = Effect on total STAT3 protein expression in human A549 cells at 1 to 4 uM after 24 hrs by Western blot analysis; assay type: ADME, cell-based; conditions: a549, 24 h
[17] = target: T1, Signal transducer and activator of transcription 3; experiment: Inhibition of STAT3 phosphorylation at tyr705 in human A549 cells at 4 uM after 24 hrs by Western blot analysisis; assay type: cell-based

| Compound | IC50 [1] [µM] | IC50 [2] [µM] | IC50 [3] [µM] | Ratio IC50 [4] | also measured |
| --- | --- | --- | --- | --- | --- |
| COc1ccc(/C=C2\CC(C(=O)N3CCN(C)CC3)C/C(=C\c3ccc(OC)cc3)C2=O)cc1 (centres undefined) | 9.07 | 17.6 | 5.46 | 3.2 | – |
| COc1ccc(/C=C2\CC(C(=O)Nc3ccc(OC)cc3)C/C(=C\c3ccc(OC)cc3)C2=O)cc1 (centres undefined) | > 20 | > 20 | > 20 | – | – |
| COc1cc(/C=C/C(=O)CC(=O)/C=C/c2ccc(O)c(OC)c2)ccc1O [CURCUMIN] | 15.1 | 44.7 | 24.5 | – | Ratio IC50 [5]: 3 |
| CCN(CC)CCNC(=O)C1C/C(=C\c2ccc(OC)c(O)c2)C(=O)/C(=C/c2ccc(OC)c(O)c2)C1 (centres undefined) | 8.13 | > 20 | 6.87 | – | – |
| COc1ccc(/C=C2\CC(C(=O)N3CCOCC3)C/C(=C\c3ccc(OC)cc3)C2=O)cc1 (centres undefined) | 16.2 | > 20 | 11.2 | – | – |
| CN1CCN(c2cccc(NC(=O)C3C/C(=C\c4ccccc4)C(=O)/C(=C/c4ccccc4)C3)c2)CC1 (centres undefined) | 5.96 | 8.69 | 1.79 | 4.9 | – |
| CN1CCN(c2ccc(NC(=O)C3C/C(=C\c4ccc(F)cc4)C(=O)/C(=C/c4ccc(F)cc4)C3)cc2)CC1 (centres undefined) | 3.17 | 2.63 | 0.59 | 5.4 | Activity [6]: Non-Toxic |
| COc1ccc(/C=C2\CC(C(=O)N3CCN(C(C)=O)CC3)C/C(=C\c3ccc(OC)cc3)C2=O)cc1 (centres undefined) | 8.02 | 17.4 | 5.84 | 3 | – |
| COc1ccc(/C=C2\CC(C(=O)NC(C)C)C/C(=C\c3ccc(OC)cc3)C2=O)cc1 (centres undefined) | 15.1 | > 20 | > 20 | – | – |
| CCN(CC)CCNC(=O)C1C/C(=C\c2ccc(OC)cc2)C(=O)/C(=C/c2ccc(OC)cc2)C1 (centres undefined) | 6.47 | 6.89 | 3.78 | 1.8 | – |
| COc1ccc(/C=C2\CC(C(=O)Nc3ccc(N4CCN(C)CC4)cc3)C/C(=C\c3ccc(OC)cc3)C2=O)cc1 (centres undefined) | 3.09 | 7.03 | 3.34 | – | Ratio IC50 [5]: 2.1 |
| COc1ccc(/C=C2\CC(C(=O)Nc3cccc(N4CCN(C)CC4)c3)C/C(=C\c3ccc(OC)c(O)c3)C2=O)cc1O (centres undefined) | 7.53 | 8.29 | 1.6 | 5.2 | – |
| CCN(CC)CCNC(=O)C1C/C(=C\c2ccc(F)cc2)C(=O)/C(=C/c2ccc(F)cc2)C1 (centres undefined) | 1.88 | 1.63 | 0.64 | 2.9 | inhibition [7]: Active; inhibition [8]: Dose-dependent effect; Activity [9]: Non-Toxic; inhibition [10]: Dose-dependent effect; Activity [6]: Non-Toxic; Activity [11]: Active; inhibition [12]: 100%; Activity [13]: Active; Activity [14]: Active; Kd [15]: 7.93 µM; Activity [16]: Non-Toxic; inhibition [17]: 100% |
| COc1ccc(/C=C2\CC(C(=O)NCCO)C/C(=C\c3ccc(OC)cc3)C2=O)cc1 (centres undefined) | 13.7 | > 20 | 11.7 | – | – |
| CN1CCN(c2cccc(NC(=O)C3C/C(=C\c4ccc(F)cc4)C(=O)/C(=C/c4ccc(F)cc4)C3)c2)CC1 (centres undefined) | 3.84 | 5.96 | 0.78 | 7.6 | Activity [6]: Non-Toxic |
| COc1ccc(/C=C2\CC(C(=O)Nc3ccc(N4CCOCC4)cc3)C/C(=C\c3ccc(OC)cc3)C2=O)cc1 (centres undefined) | 2.76 | 15.6 | 4.21 | – | Ratio IC50 [5]: 5.7 |
| COc1ccc(/C=C2\CC(C(=O)Nc3cccc(N4CCN(C)CC4)c3)C/C(=C\c3ccc(OC)cc3)C2=O)cc1 (centres undefined) | 3.69 | 10.1 | 3.39 | 3 | – |
| COc1ccc(/C=C2\CC(C(=O)Nc3ccccc3)C/C(=C\c3ccc(OC)cc3)C2=O)cc1 (centres undefined) | > 20 | > 20 | > 20 | – | – |
| CCN(CC)CCNC(=O)C1C/C(=C\c2ccccc2)C(=O)/C(=C/c2ccccc2)C1 (centres undefined) | 3.93 | 4.41 | 0.63 | 7 | – |
